Laboratory results as given in ChEMBL document CHEMBL3593209, “5-Aryl-1H-pyrazole-3-carboxylic acids as selective inhibitors of human carbonic anhydrases IX and XII” (Bioorg Med Chem, 2015).

Tests used:
[1] = target: Carbonic anhydrase 1 (Homo sapiens, UniProt P00915); assay: Inhibition of human recombinant carbonic anhydrase 1 expressed in Escherichia coli preincubated for 15 mins by stopped flow CO2 hydration method
[2] = target: Carbonic anhydrase 2 (Homo sapiens, UniProt P00918); assay: Inhibition of human recombinant carbonic anhydrase 2 expressed in Escherichia coli preincubated for 15 mins by stopped flow CO2 hydration method
[3] = target: Carbonic anhydrase 9 (Homo sapiens, UniProt Q16790)
Description: Inhibition of human recombinant carbonic anhydrase 9 expressed in Escherichia coli preincubated for 15 mins by stopped flow CO2 hydration method

[4] = target: Carbonic anhydrase 12 (Homo sapiens, UniProt O43570); assay: Inhibition of human recombinant carbonic anhydrase 12 expressed in Escherichia coli preincubated for 15 mins by stopped flow CO2 hydration method
Chain of Carbonic anhydrase 12 (O43570 whole entry): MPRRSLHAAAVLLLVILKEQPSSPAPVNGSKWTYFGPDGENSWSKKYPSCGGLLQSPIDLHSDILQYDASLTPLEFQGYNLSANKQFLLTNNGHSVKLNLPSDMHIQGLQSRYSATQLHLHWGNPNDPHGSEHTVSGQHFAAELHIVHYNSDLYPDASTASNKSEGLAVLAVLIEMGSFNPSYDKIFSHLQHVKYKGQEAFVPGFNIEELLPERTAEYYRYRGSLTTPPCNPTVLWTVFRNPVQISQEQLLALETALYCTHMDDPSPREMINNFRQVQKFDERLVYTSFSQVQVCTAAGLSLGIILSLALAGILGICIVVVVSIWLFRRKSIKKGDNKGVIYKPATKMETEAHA

[5] = Dissociation constant, acidic pKa of the compound by spectrophotometric analysis

Chain of Carbonic anhydrase 1 (P00915 whole entry): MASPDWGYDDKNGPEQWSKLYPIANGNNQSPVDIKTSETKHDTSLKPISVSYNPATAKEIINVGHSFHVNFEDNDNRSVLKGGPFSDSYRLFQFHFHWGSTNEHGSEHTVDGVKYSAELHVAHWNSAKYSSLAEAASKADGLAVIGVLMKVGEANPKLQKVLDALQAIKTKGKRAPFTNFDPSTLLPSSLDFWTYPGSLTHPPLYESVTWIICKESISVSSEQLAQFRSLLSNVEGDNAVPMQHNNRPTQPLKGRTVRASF

SMILES	Ki [1] [µM]	Ki [2] [µM]	Ki [3] [µM]	Ki [4] [µM]	pKa [5]
Cc1cc(C)c(-c2cc(C(=O)O)n[nH]2)cc1C	> 50	> 50	23.5	> 50	
O=C(O)c1cc(-c2ccc(N3CCCC3)cc2)[nH]n1	> 50	> 50	> 50		
COc1cc(C)c(-c2cc(C(=O)O)n[nH]2)cc1C	> 50	> 50	22.5	> 50	
O=C(O)c1cc(-c2ccc(Cl)cc2)n[nH]1	> 50	> 50	> 50	50	
O=C(O)c1cc(-c2ccc(O)cc2)n[nH]1	> 50	> 50	> 50	41	
CC(C)c1ccc(-c2cc(C(=O)O)[nH]n2)cc1	> 50	> 50	> 50	> 50	
CC(C)c1ccc(-c2cc(C(=O)O)n[nH]2)c(C(C)C)c1	> 50	> 50	16	> 50	
Cc1cc(C)c(C)c(-c2cc(C(=O)O)n[nH]2)c1C	> 50	> 50	5	> 50	
CCc1ccc(-c2cc(C(=O)O)[nH]n2)cc1	> 50	> 50	42	4.5	
Cc1ccc(-c2cc(C(=O)O)[nH]n2)cc1	> 50	> 50	> 50	> 50	
CC(C)(C)c1ccc(-c2cc(C(=O)O)n[nH]2)cc1	> 50	> 50	5		
CC(C)c1cc(C(C)C)c(-c2cc(C(=O)O)n[nH]2)c(C(C)C)c1	> 50	> 50	39		
Cc1ccc(-c2cc(C(=O)O)[nH]n2)c(C)c1	> 50	> 50	45	> 50	
O=C(O)c1cc(-c2cccc(Br)c2)[nH]n1	> 50	> 50	23.5	> 50	
COc1ccc(-c2cc(C(=O)O)n[nH]2)cc1	> 50	> 50	49.5	> 50	3.31
O=C(O)c1cc(-c2ccc3c(c2)CCCC3)[nH]n1	> 50	> 50	> 50		
CCCCc1ccc(-c2cc(C(=O)O)n[nH]2)cc1	> 50	> 50	39		
COc1ccccc1-c1cc(C(=O)O)n[nH]1	> 50	> 50	> 50		
O=C(O)c1cc(-c2ccc(-c3ccccc3)cc2)[nH]n1	> 50	> 50	> 50		
CCc1cc(CC)c(-c2cc(C(=O)O)n[nH]2)c(CC)c1	> 50	> 50	> 50	> 50	
O=C(O)c1cc(-c2ccc(F)cc2)n[nH]1	> 50	> 50	> 50	38.5	
Cc1ccc(-c2cc(C(=O)O)[nH]n2)cc1C	> 50	> 50	48	> 50	
O=C(O)c1cc(-c2ccc3ccccc3c2)[nH]n1	> 50	> 50	> 50		
